Reference: the supplement of paper PMC5844555

What was measured:
Assay in all cases: 3' UTR reporter interaction score (median-centred robust z-score of log2 firefly/Renilla activity); higher = less repression of the 3' UTR reporter
Conditions in all cases: HEK293T; 48 h
BRCA2 = test system: BRCA2
In short: (§1)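 For the interaction score, the firefly/Renilla ratio was log-transformed, expressed as a robust z-score per plate using median and median absolute deviation, and median-centred per miRNA; a more negative score indicates interaction. These scores come from at least two independent screens, averaged. Each screen used HEK293T cells at 10,000/well in 96-well plates, co-transfected with DharmaFECT Duo carrying 100 ng luc2P 3' UTR reporter, 20 ng pRL-TK and 2.5 pmol miRNA mimic, with luciferase read at 48 h.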

EZH2 = test system: EZH2
In short: as §1

FBXW7 = test system: FBXW7
In short: as §1

HRAS = test system: HRAS
In short: as §1

MYB = test system: MYB
In short: as §1

MYCN = test system: MYCN
In short: as §1

MYC = test system: MYC
In short: as §1

MYT1L = test system: MYT1L
In short: as §1

NOTCH1 = test system: NOTCH1
In short: as §1

PHF6 = test system: PHF6
In short: as §1

PHOX2B = test system: PHOX2B
In short: as §1

RB1 = test system: RB1
In short: as §1

TP53 = test system: TP53
In short: as §1

ZEB2 = test system: ZEB2
In short: as §1

Row | Sequence | 3' UTR reporter interaction score (BRCA2) | 3' UTR reporter interaction score (EZH2) | 3' UTR reporter interaction score (FBXW7) | 3' UTR reporter interaction score (HRAS) | 3' UTR reporter interaction score (MYB) | 3' UTR reporter interaction score (MYCN) | 3' UTR reporter interaction score (MYC) | 3' UTR reporter interaction score (MYT1L) | 3' UTR reporter interaction score (NOTCH1) | 3' UTR reporter interaction score (PHF6) | 3' UTR reporter interaction score (PHOX2B) | 3' UTR reporter interaction score (RB1) | 3' UTR reporter interaction score (TP53) | 3' UTR reporter interaction score (ZEB2)
1 | UGAGGUAGUAAGUUGUAUUGUU | 0.117 | -3.5 | 0.412 | 0.519 | 0.37 | -4.78 | -2.7 | 0.292 | 0.263 | -0.107 | -0.47 | 0.186 | -0.165 | 0.389
2 | UGAGGUAGUAGAUUGUAUAGUU | 0.246 | -5.6 | 0.329 | 0.942 | 0.461 | -4.33 | -2.66 | 0.00725 | -0.987 | 0.283 | 0.189 | 0.338 | -0.262 | -0.843
3 | UGAGGUAGUAGGUUGUAUAGUU | 0.954 | -3.3 | 0.0535 | 0.245 | 0.376 | -4.02 | -1.94 | -0.405 | -0.241 | 2.23 | -1.51 | -1.04 | 0.766 | -0.683
4 | UGAGGUAGUAGGUUGUGUGGUU | 1.21 | -3.63 | 0.642 | 0.13 | 0.859 | -4.48 | -4.84 | 0.566 | -0.305 | 0.852 | 0.11 | 1.01e-16 | 0.495 | -1.14
5 | UGAGGUAGUAGUUUGUACAGU | 0.445 | -4.15 | -0.143 | 1.06 | 0.441 | -3.87 | -2.59 | 0.517 | 0.637 | -0.221 | 0.114 | 0.426 | 0.627 | -1.5
6 | UGAGGUAGUAGUUUGUGCUGU | 0.294 | -4.28 | 0.144 | 1.26 | 1.1 | -3.97 | -3 | 0.99 | -0.444 | 0.213 | -1.23 | 0.903 | 0.534 | 0.496
7 | UGAGUUGGCCAUCUGAGUGAG | -0.135 | 0.24 | -0.251 | -0.0567 | 0.927 | -3.35 | -0.317 | 2.61 | 1.03 | 2.42 | -3.59 | 0.000132 | -0.988 | 0.14
8 | UGAUAUGUUUGAUAUAUUAGGU | -2.64 | -0.107 | 0.769 | -0.158 | -0.701 | 0.278 | 0.0447 | 0.136 | 0.183 | -0.754 | 0.239 | -0.392 | 0.331 | -0.629
9 | UGAUUGGUACGUCUGUGGGUAGA | -0.144 | -0.0408 | -0.747 | 0.535 | 1.17 | 0.569 | -2.85 | 0.161 | -4.51 | -0.0836 | -0.434 | 0.153 | 0.443 | -0.485
10 | UGAUUGUCCAAACGCAAUUCU | 0.855 | -0.465 | -0.0252 | 0.277 | 0.183 | 0.178 | -2.91 | -0.829 | 0.81 | 1.16 | 0.249 | 0.331 | -0.447 | 0.494
11 | UGCACCAUGGUUGUCUGAGCAUG | 0.899 | 0.00438 | -1.84 | -0.315 | 0.379 | -5.44 | -0.0708 | 0.0254 | -0.682 | 0.727 | -1.01 | 0.168 | 0.617 | -1.45
12 | UGCCUGGGUCUCUGGCCUGCGCGU | -0.375 | -0.794 | -2.61 | -1.95 | 0.325 | -0.0821 | 0.101 | -0.227 | 0.3 | 0.782 | -0.846 | -2.47 | 0.35 | 0.387
13 | UGCUGACUCCUAGUCCAGGGC | -3.34 | 0.906 | 0.322 | -1.77 | 0.123 | 0.0884 | 0.54 | 0.333 | -0.364 | 1.06 | -0.537 | 2.05 | 0.366 | -1.99
14 | UGCUUCCUUUCAGAGGGU | -0.366 | 0.85 | 0.46 | -0.697 | 1.13 | 0.0627 | 0.327 | 0.521 | 0.215 | -0.232 | -0.331 | -0.583 | -1.13 | -0.357
15 | UGGAAGACUAGUGAUUUUGUUG | -0.32 | 0.509 | -0.892 | 0.856 | 0.454 | 0.44 | -0.317 | -1.31 | -0.0478 | 0.207 | 0.182 | 0.176 | -1.48 | -0.874
16 | UGGAAUGUAAAGAAGUAUGUA | 0.327 | -0.314 | -2.71 | 1.1 | 0.679 | -0.505 | 0.479 | -0.17 | -0.912 | 0.925 | 0.106 | 0.684 | -1.46 | 0.551
17 | UGGAAUGUAAGGAAGUGUGUGG | -0.366 | 0.341 | -0.356 | 0.0317 | -0.696 | -2.18 | 0.26 | 0.351 | -0.967 | 2.43 | 0.446 | 1.33 | -1.12 | 2.54
18 | UGGACGGAGAACUGAUAAGGGU | 0.362 | -0.0404 | 0.0713 | -0.151 | 0.576 | -0.133 | -0.199 | 0.408 | -0.401 | 0.399 | -1.18 | -0.376 | 0.461 | 0.823
19 | UGGAGAGAAAGGCAGUUC | -0.859 | -0.838 | -1.52 | -0.0201 | 0.823 | 0.412 | 0.053 | 0.463 | -0.015 | -0.104 | -0.292 | -0.051 | -1.31 | 1.17
